Data as given in paper PMC12592420, “A mismatch in enzyme-redox partnerships underlies divergent cytochrome P450 activities between human hepatocytes and microsomes” (Communications Biology, 2025).
Several values for one entry are separate records, joined by “and”; a condition that tells them apart may be missing. Equal entries are not always repeated.

What was measured:
[1] = Metabolism of savolitinib in lysed hepatocytes + NADPH; assay type: in vitro ADME, human; details: savolitinib 1 µM, HH lysate + NADPH
Method: HH in Leibovitz buffer were centrifuged at 11,250 × g for 5 min to pellet the cells. Taking care not to disturb the pellet, all the media was removed using a pipette. Ice-cold water was added and the mixture vortex-mixed to resuspend the cells and stored at −80 °C for 5 min followed by sonication for 10 min to lyse the cells. The resuspended lysate final volume was equivalent to a final cell concentration of 1 million cells/mL (the same concentration used for intact cells experiments) in […] phosphate buffer pH 7.4 and NADPH (final 1 mM). After pre-incubating for 5 min at 37 °C, the reaction (metabolism of savolitinib) in the lysate was initiated by adding savolitinib (final 1 µM). […] Authentic standards (M2 and M4) were spiked into hepatocyte lysate and used to construct standard curves. The acetonitrile/hepatocyte lysate mixtures were centrifuged at 3000 × g for 10 min and 50 µl of the supernatant was mixed with 300 µl of water and 3 µL was injected into the mass spectrometer for analysis by multiple reaction monitoring.

[2] = Incubations in human liver S9 + NADPH (same donor pool as HLM); assay type: in vitro ADME; details: S9 + NADPH, savolitinib 1 µM, 1 h (Fig. 6aii)
[3] = Savolitinib metabolite (M2, M4) formation in NADPH-HLM (with BSA or cytosol where stated); assay type: in vitro ADME, human; design: [M4] / M2 average / M4 average: unit not given here; details: for M2 average / M4 average: average of duplicate (Suppl. Fig. 1); for [M2] / [M4]: savolitinib 1 µM
human hepatocytes (HH) [4] = assay: Savolitinib metabolite (M2, M4) formation in human hepatocytes, with and without CYP inhibitors; assay type: in vitro ADME; details: savolitinib 1 µM, intact HH
Method: […]120millioncells/[…] […] Authentic standards (M2 and M4) were spiked into hepatocytes (at 1 million cells/mL) and used to construct standard curves. Control marker reactions (final 1 μM for each compound) specific for CYP1A2 (phenacetin to form paracetamol), CYP2C19 (S-mephenytoin to form 4-OH mephenytoin) and CYP2D6 (dextromethorphan to form dextrorphan) were incubated in the presence and absence of the specific inhibitors to confirm the expected enzyme inhibition. […] After a pre-incubation at 37 °C for 5 min, the reaction was started by adding the test compound. […] After centrifugation at 3000 × g for 10 min, 200 μL of the supernatant was mixed with 400 μL of water before analysis for metabolites.

human hepatocytes (HH) [5] = assay: as above; assay type: in vitro ADME; details: savolitinib 5 µM, 1 h, only peak above this level
[6] = healthy volunteers, N-demethylation to M2; cited from earlier work
[7] = Incubations in HLM + NADPH from the same donor pool as S9; assay type: in vitro ADME, human; details: HLM (same donors as S9) + NADPH, savolitinib 1 µM, 1 h (Fig. 6aii)
From the text: Liver S9 (lot 1810001, pool of 50, Xenotech) and HLM (pool of 50, lot 1810003, Xenotech) from the same pool of donors were purchased from Xenotech.

recombinant CYP3A4-POR = biological target: T1, recombinant CYP3A4-POR (Homo sapiens, UniProt P08684); assay: Savolitinib incubation with recombinant CYP3A4-POR Supersomes; assay type: in vitro ADME; details: CYP3A4 (CYP13A4 [sic]), savolitinib 1 µM, 1 h (Fig. 2c)
T1 construct: purchased 456202
Method: For detailed comparisons between recombinant CYP1A2 and CYP3A4 (Fig. 2B, C), Supersomes were used (CYP1A2, catalogue number 456203, CYP3A4, catalogue number 456202). […] The concentration of savolitinib metabolites M2 and M4 formed were determined from standard curves obtained by spiking the appropriate concentrations of M2 and M4 into recombinant enzymes (in the absence of NADPH) and processing in the same way as the samples.

[8] = Intrinsic permeability in Caco-2 cells with efflux inhibited; details: human, Caco-2
[9] = Free fraction in HLM incubation, equilibrium dialysis; assay type: in vitro ADME, human; details: fraction unbound, measured or estimated by in silico models of Fuinc
in vitro [10] = details: human, microsomes, pH 7.4
Method: (§1) Calculation and scaling of CLint,u was done using the equation below and 45 mg of microsomal protein per gram of liver. HLMCLint,u=ln2/x1/t1/2(min)xmLincubation/mgmicrosomalproteinx45mgmicrosomalprotein/gliverx21gliver/kg/Fuinc

in vitro [11] = details: human, microsomes, pH 7.4, NADPH_HLM_scaled_CLint,u
Method: as §1

in vitro [12] = details: human, hepatocytes
physchem = details: pH 7.4
rat hepatocytes = assay: Free fraction in rat hepatocytes as surrogate for HH, equilibrium dialysis; assay type: in vitro ADME; details: fraction unbound, measured or estimated by in silico models of Fuinc
[13] = 60min, cytosol 0 mg/mL, single measurements (Suppl. Fig. 1)
[14] = 60min, cytosol 4 mg/mL, single measurements (Suppl. Fig. 1)
[15] = 60min, cytosol 10 mg/mL, single measurements (Suppl. Fig. 1)

T1 sequence (P08684 whole entry): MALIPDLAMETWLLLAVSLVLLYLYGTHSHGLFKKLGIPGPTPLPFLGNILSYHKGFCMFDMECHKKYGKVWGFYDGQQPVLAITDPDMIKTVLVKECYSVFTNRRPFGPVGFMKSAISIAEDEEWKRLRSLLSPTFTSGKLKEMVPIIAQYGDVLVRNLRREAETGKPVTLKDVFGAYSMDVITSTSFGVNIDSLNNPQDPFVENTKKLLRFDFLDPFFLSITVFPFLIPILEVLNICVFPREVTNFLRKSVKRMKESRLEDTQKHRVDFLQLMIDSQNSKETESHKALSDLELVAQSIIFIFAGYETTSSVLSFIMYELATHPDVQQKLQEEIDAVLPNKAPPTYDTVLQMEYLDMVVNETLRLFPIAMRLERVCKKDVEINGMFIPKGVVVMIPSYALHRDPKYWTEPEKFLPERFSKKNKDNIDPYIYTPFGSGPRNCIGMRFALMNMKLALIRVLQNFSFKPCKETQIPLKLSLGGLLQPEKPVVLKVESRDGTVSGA

## C[C@@H](c1ccc2nccn2c1)n1nnc2ncc(-c3cn[nH]c3)nc21 [Compound M2]
[1]; 0 min (Fig. 6cii)
  [M2]: 0.25 nM and 0.2 nM
[1]; 5 min (Fig. 6cii)
  [M2]: 1.7 nM and 2.55 nM and 1.8 nM
[1]; 10 min (Fig. 6cii)
  [M2]: 3.5 nM and 5.15 nM and 3.8 nM
[1]; 20 min (Fig. 6cii)
  [M2]: 6.7 nM and 10.4 nM and 7.3 nM
[1]; 40 min (Fig. 6cii)
  [M2]: 11.35 nM and 17.1 nM and 12.4 nM
[1]; 60 min (Fig. 6cii)
  [M2]: 15.15 nM and 22.05 nM and 17 nM
[2]
  [M2]: 6.15 nM and 6.3 nM and 4.1 nM
[3]; 60min, cytosol 0 mg/mL
  M2 average: 12.95 and 12.75 and 12.25
[3]; 60min, cytosol 4 mg/mL
  M2 average: 10.25 and 10.45 and 11.2
[3]; 60min, cytosol 10 mg/mL
  M2 average: 7.45 and 7.9 and 8.9
[3]; 1 h (Fig. 2e)
  [M2]: 9.4 nM and 16.7 nM and 13.4 nM
[3]; [13]
  [M2]: 13.1 and 12.8 and 12.6 and 12.9 and 11.7
[3]; [14]
  [M2]: 10.4 and 10.1 and 10.6 and 10.3 and 10.9 and 11.5
[3]; [15]
  [M2]: 7.5 and 7.4 and 8 and 7.8 and 8.5 and 9.3
Human hepatocytes (HH) [4]; 5 min (Fig. 2a, 6cii)
  [M2]: 1.4 nM and 2.2 nM and 2.25 nM
Human hepatocytes (HH) [4]; 10 min (Fig. 2a, 6cii)
  [M2]: 2.85 nM and 3.9 nM and 4.1 nM
Human hepatocytes (HH) [4]; 20 min (Fig. 2a, 6cii)
  [M2]: 6.15 nM and 6.85 nM and 7.4 nM
Human hepatocytes (HH) [4]; 40 min (Fig. 2a, 6cii)
  [M2]: 12.1 nM and 12.5 nM and 13.35 nM
Human hepatocytes (HH) [4]; 60 min (Fig. 2a, 6cii)
  [M2]: 15.75 nM and 16.75 nM and 16.5 nM
Human hepatocytes (HH) [5]
  metabolite peak by UV detection: greater than 1%
[6]
  metabolite, share of the dose: 60 % of the dose
[7]
  [M2]: 12.05 nM and 12.7 nM and 9.9 nM

## C[C@@H](c1ccc(N)nc1)n1nnc2ncc(-c3cnn(C)c3)nc21 [Compound M4]
Recombinant CYP3A4-POR
  [M4] nM formed by recombinant CYPs: 208.8 nM and 197.55 nM and 216.7 nM
[1]; 0 min (Fig. 6cii)
  [M4]: 2.8 nM and 3 nM and 2.75 nM
[1]; 5 min (Fig. 6cii)
  [M4]: 3.1 nM and 3.9 nM and 3.3 nM
[1]; 10 min (Fig. 6cii)
  [M4]: 4.2 nM and 5.25 nM and 4 nM
[1]; 20 min (Fig. 6cii)
  [M4]: 4.6 nM and 6.95 nM and 4.95 nM
[1]; 40 min (Fig. 6cii)
  [M4]: 6.1 nM and 9.2 nM and 6.8 nM
[1]; 60 min (Fig. 6cii)
  [M4]: 7.5 nM and 10.55 nM and 8.1 nM
[3]; 60min, cytosol 0 mg/mL
  M4 average: 45.7 and 50.45 and 48.25
[3]; 60min, cytosol 4 mg/mL
  M4 average: 17.35 and 19.85 and 21.35
[3]; 60min, cytosol 10 mg/mL
  M4 average: 7.4 and 8.2 and 10.05
[3]; [13]
  [M4]: 45.1 and 46.3 and 50.7 and 50.2 and 47.8 and 48.7
[3]; [14]
  [M4]: 17.9 and 16.8 and 19.5 and 20.2 and 21.9 and 20.8
[3]; [15]
  [M4]: 7.5 and 7.3 and 8.2 and 10.2 and 9.9
[7]
  [M4]: 59.25 nM and 71.3 nM and 48.9 nM

## CC(=O)CC(c1ccccc1)c1c(O)c2ccccc2oc1=O (centres unmarked) [Warfarin]
[8]
  Papp at 2 h, 10 µM: 60.7 ×10⁻⁶ cm/s
[9]
  fu_HLM: 1
In vitro [10]
  CLint scaled at 1 µM: 2.83 mL/min/kg
In vitro [11]
  CLint scaled at 1 µM: 4.16 mL/min/kg
In vitro [12]; both
  hepatocyte CLint at 1 µM: 2.69 µL/min/1e6 cells
In vitro [12]; HH_scaled_CLint,u
  CLint scaled at 1 µM: 8.57 mL/min/kg
physchem
  logD: 0.902
Rat hepatocytes
  fu_ratHH: 0.791
